# Paper PMC5469758, “Identification of an in vivo orally active dual-binding protein-protein interaction inhibitor targeting TNFα through combined in silico/in vitro/in vivo screening” (Scientific Reports, 2017)
# Read-outs that look alike come from different tables or passages of the source.
# Experiments:
# [1] = target: T1, JNK1 (Homo sapiens, UniProt P45983); assay: CEREP/Eurofins kinase inhibition, JNK1; format: biochemical; conditions: JNK1, 1 μM; read-out: % Inhibition of Control Values
# T1 construct: purchased CEREP/Eurofins
# Method: (§1) Kinases and caspases activities in presence of 1 µM of compound 1 were carried out by CEREP/Eurofins (Celle-Lévescault). The activity of compound 1 on the different kinases and caspases was compared to control values. Data are expressed as percentages of inhibition of control values.
# [2] = target: T2, TNFα/TNFRII (Homo sapiens, UniProt P01375); assay: TNFα-TNFRII binding ELISA; format: biochemical
# T2 construct: purchased R&D Systems
# Method: (§2) Microtiter plates were coated with 12.5 ng of TNFRI or TNFRII in 125 μl of PBS per well at 37 °C. The wells were washed, blocked with PBS/BSA 2% for three hours and washed as before. Serial dilutions of compounds were mixed with a fixed quantity of TNFα in PBS/BSA 1% and incubated two hours at 37 °C. 125 μl of the mix were added to the wells and plates were incubated overnight at 4 °C. Wells were washed incubated with 37.5 ng of TNFα biotinylated antibody in 125 μl of PBS/BSA 1% for two hours at 37 °C. Wells were washed and incubated with avidin-HRP (1:500) in 125 μl of PBS/BSA 1% for 30 minutes at 37 °C, 5% CO2. After washing, TMB solution was added to wells, quenched with 63 μl of 1 M H2SO4 solution. Absorbance was measured at 450 nm.
# [3] = target: T3, TNFα (Homo sapiens, UniProt P01375); assay: Intrinsic tryptophan fluorescence of TNFα; format: binding; conditions: 0.5 μM TNFα; 20–100 µM range
# T3 construct: purchased R&D Systems
# Method: All samples were brought to 10 mM phosphate buffer, 0.05% Tween20, 1% DMSO. Fluorescence readings were made with a Quantamaster QM4CW spectrofluorimeter (Photon Technology International), by exciting TNFα at 290 nm and measuring the emission peaks at 322 nm. Compound 1 inner filter effects were corrected using absorbance measurements of compound alone solutions at 290 nm and 322 nm.
# [4] = system: Balb/C mice; assay: LPS/D-Galactosamine induced lethal shock (TNFα-dependent hepatic shock model); format: in vivo
# Method: 7 weeks-old Balb/C mice were force-fed with 100 μl of a solution of DMSO containing various doses of compound 1 (5 mg down to 0.5 mg) eight hours before receiving an intraperitoneal injection of 200 μl of PBS containing 0.1 μg of LPS and 20 mg of D-Galactosamine. A control group (DMSO) was force-fed with 100 μl of a solution of DMSO alone eight hours before to be injected with 200 μl of LPS/D-Galactosamine solution. Mice survival was monitored for 48 hours after the injection of LPS/D-Galactosamine.
# 7 weeks-old Balb/C mice were forced-fed with a solution of DMSO containing 5 mg of compound 1 eight hours before receiving an intraperitoneal injection of 200 μl of PBS containing 0.1 μg of LPS and 20 mg of D-Galactosamine. Eight hours after LPS/D-Galactosamine injection, mice were sacrificed by cervical dislocation and livers were harvested, fixed in 4% formalin and embedded in paraffin. […] Slides were scanned with a slide scanner (Perkin Elmer) and analyzed with Pannoramic viewer (3D HISTECH).
# 7 weeks-old Balb/C mice were forced-fed with a solution of DMSO containing 5 mg of compound 1 eight hours before receiving an intraperitoneal injection of 200 μl of PBS containing 0.1 μg of LPS and 20 mg of D-Galactosamine. Three hours after LPS/D-Galactosamine injection, mice were anesthetized with ketamine/xylazine to recover blood by cardiac puncture. Sera were kept at −80 °C until assay.
# TNFα in serum was quantified using U-CyTech biosciences kits (Utrecht, The Netherlands) according to manufacturer’s procedures.
# 7 weeks-old Balb/C mice were forced-fed with a solution of DMSO containing 5 mg of compound 1 eight hours before receiving an intraperitoneal injection of 200 μl of PBS containing 0.1 μg of LPS and 20 mg of D-Galactosamine. Eight hours after, mice were anesthetized by an injection of ketamine/xylazine to recover blood by cardiac puncture. Sera were kept at −80 °C until assay. Quantification of AST/ALT was performed using Architec ci 8200 analyser (Abbott) with reagent kits from Abbott.
# [5] = target: T4, IKKα (Homo sapiens, UniProt O15111); assay: CEREP/Eurofins kinase inhibition, IKKα; format: biochemical; conditions: read-out: % Inhibition of Control Values
# T4 construct: purchased CEREP/Eurofins
# Method: as §1
# [6] = system: murine TNFα-induced apoptosis on L929 cells; assay: Neutralization of murine TNFα induced apoptosis in L929 cells; format: cell-based; conditions: Mus musculus
# Method: (§3) 80% confluent L929 cells were plated in flat bottom plates at 4 × 10^5 cells per well in 100 μl of DMEM medium containing 10% FBS, 2 mM L-Glutamine, 100 U/ml Penicillin − 100 μg/ml Streptomycin and incubated for one night at 37 °C, 5% CO2. TNFα or TNFβ (150 pg/ml), Actinomycin D (4 μg/ml) and the compounds at different concentrations (ranging from 100 μM to 0.8 μM) were mixed in 150 μl DMEM medium 1% FBS, 2 mM L-Glutamine, 100 U/ml Penicillin−100 μg/ml Streptomycin in U-bottom plates. After two hours incubation at 37 °C, 5% CO2, 100 μl of the mix was added to the plated cells and incubated at 37 °C, 5% CO2 for 24 hours. Supernatants were discarded and 100 μl of MTT at 0.5 mg/ml were added to wells. After two hours, supernatants were discarded and 200 μl of DMSO were then added. Plates were read at 570 nm with a spectrophotometer providing the optical density (OD) of each well. The percentage of neutralization of TNFα by a compound was calculated using equation 3:3 %Neutra=ODcompound−ODTNFα/ODcells−ODTNFα×100
# (§4) An IC50 could be computed from the percentage of neutralization for each compound.
# [7] = target: T5, IKKβ (Homo sapiens, UniProt O14920); assay: CEREP/Eurofins kinase inhibition, IKKβ; format: biochemical; conditions: read-out: % Inhibition of Control Values
# T5 construct: purchased CEREP/Eurofins
# Method: as §1
# [8] = target: T6, p38δ kinase (Homo sapiens, UniProt O15264); assay: CEREP/Eurofins kinase inhibition, p38δ; format: biochemical; conditions: read-out: % Inhibition of Control Values
# T6 construct: purchased CEREP/Eurofins
# Method: as §1
# [9] = Bioavailability; format: in vivo; conditions: mouse, oral
# [10] = system: caspase 8 activation; assay: Caspase-Glo 8 activation assay; format: cell-based; conditions: dose dependent
# Method: (§5) Caspases 3 and 8 activation was determined using Caspase-Glo® 3 and Caspase-Glo-8® assays kits (Promega) according to the manufacter’s procedures. After 8 hours of treatment, plates were equilibrated at room temperature. 100 μl Caspase-Glo 3® and Caspase-Glo 8® reagent were added to each well. Luminescence was read on a FLUOstar OPTIMA reader.
# [11] = target: T7, TNFα/TNFRI (Homo sapiens, UniProt P01375); assay: TNFα-TNFRI binding ELISA; format: biochemical
# T7 construct: purchased R&D Systems
# Method: as §2
# [12] = system: human TNFα induced apoptosis on the L929 cell line; assay: Neutralization of human TNFα induced apoptosis in L929 cells (MTT); format: cell-based; conditions: human TNFα, read-out: IC50, inhibition of TNFα induced apoptosis
# Method: as §3, §4
# [13] = system: IκB kinases (IKK), JNK1, p38 and Syk, caspase 3, caspase 8; assay: Direct inhibition of kinases and caspases related to the TNFα pathway (CEREP/Eurofins panel); format: biochemical; conditions: at 1 µM
# Method: as §1
# [14] = system: caspase 3 activation; assay: Caspase-Glo 3 activation assay; format: cell-based; conditions: dose dependent
# Method: as §5
# [15] = target: T8, IKKε (Homo sapiens, UniProt Q14164); assay: CEREP/Eurofins kinase inhibition, IKKε; format: biochemical; conditions: read-out: % Inhibition of Control Values
# T8 construct: purchased CEREP/Eurofins
# Method: as §1
# [16] = Solubility in aqueous solvents; format: physicochemical
# [17] = target: T9, Caspase 8 (Homo sapiens, UniProt Q14790); assay: CEREP/Eurofins caspase inhibition, Caspase 8; format: biochemical; conditions: Caspase 8, 1 μM; read-out: % Inhibition of Control Values
# T9 construct: purchased CEREP/Eurofins
# Method: as §1
# [18] = system: CXCL1 secretion by L929 cells; assay: CXCL1 secretion in L929 supernatants after TNFα stimulation (ELISA); format: cell-based, murine; conditions: TNFα (5 ng/ml)
# Method: Cells were plated at 2.5 × 10^5 cells/well in 24-well plates and treated as indicated. Eight hours later, supernatants were recovered and kept at −20 °C for later use. The concentration of murine CXCL1 was measured in supernatants with a dosage ELISA kit obtained from R&D Systems (Lille, France) according to the manufacter’s procedures.
# [19] = target: T3, TNFα; assay: Surface Acoustic Wave (SAW) biosensor gravimetric measurement of dissociation constants; format: binding; conditions: for Kd: two-site binding model, room temperature
# Method: Gravimetric measurements were performed using surface acoustic wave (SAW) sensors. TNFα solutions were prepared by diluting 10 µg of lyophilized TNFα in 1 ml of PBS. They were kept in the freezer (at −18 °C) and put at room temperature just before their further grafting onto the gold surface area of the SAW sensor.
# Phase shift variations (ΔΦ) versus compound concentration (C) were fitted using equation 1 ΔΦ=Φsat×C/Kd+C where Φsat represents the maximum sensor’s response to the compound binding and Kd represents the equilibrium dissociation constant.
# In the case of a two-site binding, equation 2 was used for fitting:2 ΔΦ=Φsat,1×C/Kd1+C+Φsat,2×C/Kd2+C
# where Φsat1 and Φsat2 are related to the maximum sensor’s response for each binding site and Kd1 and Kd2 are their respective dissociation constants.
# [20] = target: T10, Syk (Homo sapiens, UniProt P43405); assay: CEREP/Eurofins kinase inhibition, Syk; format: biochemical; conditions: read-out: % Inhibition of Control Values
# T10 construct: purchased CEREP/Eurofins
# Method: as §1
# [21] = target: T11, p38α kinase (Homo sapiens, UniProt Q16539); assay: CEREP/Eurofins kinase inhibition, p38α; format: biochemical; conditions: read-out: % Inhibition of Control Values
# T11 construct: purchased CEREP/Eurofins
# Method: as §1
# [22] = system: TNFβ induced apoptosis in L929 cell line; assay: Neutralization of TNFβ induced apoptosis in L929 cells (MTT); format: cell-based
# Method: as §3, §4
# [23] = system: TNFα induced NF-κB activation in HEK cells; assay: HEK-Blue TNFα NF-κB secreted embryonic alkaline phosphatase reporter assay; format: cell-based, human; conditions: Homo sapiens, HEK293; HEK cell line expressing TNFRI; read-out: IC50, TNFα signaling NF-κB reporter
# Method: 80% confluent HEK-Blue™ TNFα were plated in flat bottom plates at 5 × 10^4 per well in 100 μl of DMEM containing 2 mM L-Glutamine, 100 U/ml Penicillin − 100 μg/ml Streptomycin and incubated at 37 °C, 5% CO2. Serial dilutions of compounds (ranging from 100 μM to 0.8 μM) were mixed with 400 pg/ml of human TNFα in DMEM containing 2% of FBS, 2 mM L-Glutamine, 100 U/ml Penicillin−100 μg/ml Streptomycin in U-bottom plates. After two hours of incubation at 37 °C, 5% CO2, 100 μl of the mix was added to the plated cells and incubated 24 hours at 37 °C, 5% CO2. 20 μl of supernatants were incubated for 3 hours with 180 μl of QUANTI-Blue™ to reveal secretion of phosphatase alcaline and plates were read at 620 nm with a spectrophotometer providing the optical density (OD).
# [24] = target: T12, p38γ kinase (Homo sapiens, UniProt P53778); assay: CEREP/Eurofins kinase inhibition, p38γ; format: biochemical; conditions: read-out: % Inhibition of Control Values
# T12 construct: purchased CEREP/Eurofins
# Method: as §1
# [25] = target: T13, Caspase 3 (Homo sapiens, UniProt P42574); assay: CEREP/Eurofins caspase inhibition, Caspase 3; format: biochemical; conditions: Caspase 3, 1 μM; read-out: % Inhibition of Control Values
# T13 construct: purchased CEREP/Eurofins
# Method: as §1
# [26] = livers eight hours after LPS/D-Galactosamine
# T3 sequence (P01375 77-233 limits assumed): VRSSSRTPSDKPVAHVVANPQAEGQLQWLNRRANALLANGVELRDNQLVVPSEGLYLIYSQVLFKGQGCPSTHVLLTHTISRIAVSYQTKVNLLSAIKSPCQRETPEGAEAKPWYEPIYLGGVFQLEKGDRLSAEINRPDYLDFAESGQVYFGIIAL
# T1 sequence (P45983 whole entry): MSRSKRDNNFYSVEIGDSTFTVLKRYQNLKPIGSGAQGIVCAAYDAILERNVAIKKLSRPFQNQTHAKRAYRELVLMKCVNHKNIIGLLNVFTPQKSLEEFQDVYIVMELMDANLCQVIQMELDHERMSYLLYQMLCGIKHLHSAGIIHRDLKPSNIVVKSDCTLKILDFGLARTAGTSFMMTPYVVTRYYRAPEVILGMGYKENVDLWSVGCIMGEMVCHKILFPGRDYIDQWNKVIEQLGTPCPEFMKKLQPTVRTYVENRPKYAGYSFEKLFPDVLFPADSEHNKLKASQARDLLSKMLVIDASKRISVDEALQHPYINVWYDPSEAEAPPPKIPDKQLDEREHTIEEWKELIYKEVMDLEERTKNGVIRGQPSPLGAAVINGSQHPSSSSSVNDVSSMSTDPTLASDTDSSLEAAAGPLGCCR
# T7 sequence (P01375 77-233 limits assumed): as the sequence (P01375 77-233 limits assumed) above
# T2 sequence (P01375 77-233 limits assumed): as above
# T4 sequence (O15111 whole entry): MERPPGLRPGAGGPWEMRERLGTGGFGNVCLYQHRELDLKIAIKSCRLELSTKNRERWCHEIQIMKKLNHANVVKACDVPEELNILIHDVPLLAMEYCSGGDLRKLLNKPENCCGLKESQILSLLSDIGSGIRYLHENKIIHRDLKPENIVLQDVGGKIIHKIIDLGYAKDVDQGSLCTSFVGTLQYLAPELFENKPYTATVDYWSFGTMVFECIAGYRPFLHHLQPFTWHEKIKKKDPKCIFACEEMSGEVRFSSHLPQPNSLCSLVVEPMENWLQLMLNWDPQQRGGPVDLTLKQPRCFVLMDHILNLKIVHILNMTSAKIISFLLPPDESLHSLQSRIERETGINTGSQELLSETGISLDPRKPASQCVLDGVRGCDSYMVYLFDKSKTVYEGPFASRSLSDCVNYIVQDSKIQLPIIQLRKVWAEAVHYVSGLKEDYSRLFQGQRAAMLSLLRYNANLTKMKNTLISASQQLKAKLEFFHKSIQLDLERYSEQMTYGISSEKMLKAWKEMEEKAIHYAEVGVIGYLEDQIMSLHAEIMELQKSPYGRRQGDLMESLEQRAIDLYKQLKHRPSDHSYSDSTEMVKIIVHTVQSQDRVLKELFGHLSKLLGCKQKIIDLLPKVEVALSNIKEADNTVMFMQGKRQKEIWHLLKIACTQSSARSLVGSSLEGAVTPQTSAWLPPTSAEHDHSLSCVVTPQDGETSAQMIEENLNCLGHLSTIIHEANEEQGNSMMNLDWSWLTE
# T11 sequence (Q16539 whole entry): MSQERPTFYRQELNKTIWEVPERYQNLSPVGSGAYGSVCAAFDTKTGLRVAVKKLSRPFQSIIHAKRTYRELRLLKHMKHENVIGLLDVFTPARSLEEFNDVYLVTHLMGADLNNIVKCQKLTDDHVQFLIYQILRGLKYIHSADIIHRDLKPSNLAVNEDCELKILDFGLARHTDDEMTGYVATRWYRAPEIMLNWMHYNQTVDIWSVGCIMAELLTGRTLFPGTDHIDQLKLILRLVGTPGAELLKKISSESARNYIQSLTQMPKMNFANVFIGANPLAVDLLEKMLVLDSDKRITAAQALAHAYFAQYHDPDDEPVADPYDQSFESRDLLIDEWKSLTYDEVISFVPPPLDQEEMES
# T8 sequence (Q14164 whole entry): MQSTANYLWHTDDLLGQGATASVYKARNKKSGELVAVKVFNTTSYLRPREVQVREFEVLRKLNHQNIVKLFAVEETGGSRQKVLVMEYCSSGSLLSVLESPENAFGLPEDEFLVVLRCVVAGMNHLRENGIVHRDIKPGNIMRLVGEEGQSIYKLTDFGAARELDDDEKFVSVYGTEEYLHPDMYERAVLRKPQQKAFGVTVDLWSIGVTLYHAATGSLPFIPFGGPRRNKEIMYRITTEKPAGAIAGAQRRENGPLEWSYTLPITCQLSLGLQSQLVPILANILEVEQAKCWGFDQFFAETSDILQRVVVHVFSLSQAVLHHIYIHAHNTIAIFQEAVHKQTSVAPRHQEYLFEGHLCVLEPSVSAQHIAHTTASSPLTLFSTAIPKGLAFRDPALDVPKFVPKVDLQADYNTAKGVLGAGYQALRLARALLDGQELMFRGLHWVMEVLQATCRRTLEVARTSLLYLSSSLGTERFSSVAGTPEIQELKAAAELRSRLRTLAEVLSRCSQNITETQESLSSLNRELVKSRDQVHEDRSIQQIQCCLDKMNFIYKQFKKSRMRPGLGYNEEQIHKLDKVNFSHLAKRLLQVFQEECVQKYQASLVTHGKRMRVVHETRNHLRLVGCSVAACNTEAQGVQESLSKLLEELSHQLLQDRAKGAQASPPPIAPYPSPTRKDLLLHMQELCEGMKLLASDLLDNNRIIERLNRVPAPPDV
# T5 sequence (O14920 whole entry): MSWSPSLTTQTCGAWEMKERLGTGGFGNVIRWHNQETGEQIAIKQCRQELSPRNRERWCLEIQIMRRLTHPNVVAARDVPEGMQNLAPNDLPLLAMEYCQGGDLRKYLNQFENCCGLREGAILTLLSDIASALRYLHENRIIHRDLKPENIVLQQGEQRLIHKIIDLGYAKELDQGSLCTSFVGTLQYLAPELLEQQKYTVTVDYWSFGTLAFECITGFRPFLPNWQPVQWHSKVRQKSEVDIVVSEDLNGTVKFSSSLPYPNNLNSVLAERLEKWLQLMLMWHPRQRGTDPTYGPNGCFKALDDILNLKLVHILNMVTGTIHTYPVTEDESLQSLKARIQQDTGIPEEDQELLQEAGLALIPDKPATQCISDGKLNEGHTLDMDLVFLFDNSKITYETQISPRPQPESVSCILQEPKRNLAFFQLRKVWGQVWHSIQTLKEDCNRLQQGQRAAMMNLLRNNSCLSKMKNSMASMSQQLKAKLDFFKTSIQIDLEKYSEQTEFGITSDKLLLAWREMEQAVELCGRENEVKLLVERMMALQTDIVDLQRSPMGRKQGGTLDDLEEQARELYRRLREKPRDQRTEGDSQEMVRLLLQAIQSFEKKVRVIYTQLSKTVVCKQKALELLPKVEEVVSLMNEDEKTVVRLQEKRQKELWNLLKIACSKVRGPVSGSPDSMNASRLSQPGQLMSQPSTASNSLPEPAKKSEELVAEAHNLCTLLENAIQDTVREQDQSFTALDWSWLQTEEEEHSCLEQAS
# T12 sequence (P53778 whole entry): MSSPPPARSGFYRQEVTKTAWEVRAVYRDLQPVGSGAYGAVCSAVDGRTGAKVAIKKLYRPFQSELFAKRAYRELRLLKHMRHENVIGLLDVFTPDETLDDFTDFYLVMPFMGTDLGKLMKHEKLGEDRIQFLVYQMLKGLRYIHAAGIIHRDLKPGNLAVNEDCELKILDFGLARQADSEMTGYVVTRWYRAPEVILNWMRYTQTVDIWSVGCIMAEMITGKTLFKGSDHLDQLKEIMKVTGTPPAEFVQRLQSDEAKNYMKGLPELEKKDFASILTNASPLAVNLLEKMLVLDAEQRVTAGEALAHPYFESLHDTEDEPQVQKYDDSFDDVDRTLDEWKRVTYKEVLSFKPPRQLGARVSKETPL
# T6 sequence (O15264 whole entry): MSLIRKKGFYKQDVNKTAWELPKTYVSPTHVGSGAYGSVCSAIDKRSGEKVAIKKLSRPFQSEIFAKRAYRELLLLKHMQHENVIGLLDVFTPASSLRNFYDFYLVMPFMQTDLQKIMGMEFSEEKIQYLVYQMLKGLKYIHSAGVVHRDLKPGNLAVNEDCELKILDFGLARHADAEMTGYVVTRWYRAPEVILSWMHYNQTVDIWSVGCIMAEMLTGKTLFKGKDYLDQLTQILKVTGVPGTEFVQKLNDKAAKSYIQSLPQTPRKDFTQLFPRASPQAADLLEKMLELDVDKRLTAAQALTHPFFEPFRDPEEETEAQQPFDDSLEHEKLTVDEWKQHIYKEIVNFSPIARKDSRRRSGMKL
# T9 sequence (Q14790 217-374 limits assumed): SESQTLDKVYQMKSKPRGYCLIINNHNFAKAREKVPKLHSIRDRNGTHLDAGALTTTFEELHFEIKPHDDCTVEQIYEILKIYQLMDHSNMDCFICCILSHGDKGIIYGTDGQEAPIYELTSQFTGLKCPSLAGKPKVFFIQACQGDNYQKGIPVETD
# T13 sequence (P42574 29-175 limits assumed): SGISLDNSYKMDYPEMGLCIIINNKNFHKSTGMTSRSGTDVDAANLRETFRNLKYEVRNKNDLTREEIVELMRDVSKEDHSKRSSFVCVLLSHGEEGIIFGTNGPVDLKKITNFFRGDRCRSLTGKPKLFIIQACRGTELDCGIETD
structure (smiles),measurement,setting,value
Cc1c(Cl)cccc1N(CC(=O)N1CCN(Cc2ccccc2)CC1)S(=O)(=O)c1ccccc1 [Compound 1],inhibition at 1 µM,[1],-3%
same,IC50,[2],31 µM
same,modification of intrinsic tryptophan fluorescence of TNFα,[3],dose dependent manner
same,expression of cleaved caspase 3 in liver (immunohistochemistry),[4]; [26],reduced expression of cleaved caspase 3
same,liver damage and hemorrhage (H&E histopathology),[4]; [26],reduced liver damage and hemorrhage
same,mice survival / protection from shock,[4]; oral 5 mg per mouse eight hours before shock,fully protective effect
same,mice serum level of AST/ALT,"[4]; oral 5 mg, eight hours after shock",diminished
same,mice serum level of TNFα,"[4]; oral 5 mg, three hours after shock",did not affect
same,inhibition at 1 µM,[5],3.2%
same,IC50,[6],~10 µM
same,inhibition at 1 µM,[7],10.3%
same,inhibition at 1 µM,[8],-1.8%
same,bioavailability,[9],low bioavailability
same,activation of caspase 8,[10],blocked the activation
same,IC50,[11],37 µM
same,IC50,"[12]; L929, L929 cell line",12 µM
same,IC50,[12]; L929 cell line,~10 µM
same,effect on kinases and caspases related to the TNFα pathway,[13],no significant effect
same,activation of caspase 3,[14],blocked the activation
same,inhibition at 1 µM,[15],7.3%
same,solubility in aqueous solvents,[16],moderate solubility
same,inhibition at 1 µM,[17],-7.3%
same,CXCL1 in supernatants,[18],significantly less CXCL1
same,ligand efficiency LE1,[19]; from Kd1,0.22
same,ligand efficiency LE2,[19]; from Kd2,0.37
same,Kd,[19]; read-out: Kd1 of TNFα/compound 1 complex,4.79 ± 1.12 µM
same,Kd,[19]; read-out: Kd2 of TNFα/compound 1 complex,0.00231 ± 0.00103 µM
same,inhibition at 1 µM,[20],-6.9%
same,inhibition at 1 µM,[21],1.5%
same,maximal survival,"[22]; TNFβ, at 100 μM",40%
same,IC50,"[22]; read-out: IC50, inhibition of TNFβ induced apoptosis",28 µM
same,IC50,[23],10 µM
same,inhibition at 1 µM,[24],-11%
same,inhibition at 1 µM,[25],-1.8%
